# Laboratory results: patent publication US11225486B2, “Tertiary alcohols as PI3K-γ inhibitors” (Incyte Corporation, priority 2017, dated 2022)
# pIC50: −log10 of the molar value. Counter-ions that a name gives are not always drawn. Like-named read-outs stand apart in the source and are kept apart here.
# Legend:
# [1] = molecular target: PI3Kγ (p110γ) Recombinant Human Protein (Homo sapiens (Human), UniProt P48736); assay: PI3K-γ scintillation proximity assay; format: biochemical
# From the text: Example B. PI3K-γ Scintillation Proximity Assay
# [γ-^33P]ATP (10 mCi/mL) and Wheat Germ Agglutinin (WGA) YSi SPA Scintillation Beads was purchased from Perkin-Elmer (Waltham, Mass.). Lipid kinase substrate, D-myo-Phosphatidylinositol 4,5-bisphosphate (PtdIns(4,5)P2)D (+)-sn-1,2-di-O-octanoylglyceryl, 3-O-phospho linked (PIP2), CAS 204858-53-7, was purchased from Echelon Biosciences (Salt Lake City, Utah). PI3Kγ (p110γ) Recombinant Human Protein was purchased from Life technology (Grand Island, N.Y.). ATP, MgCl2, DTT, EDTA, MOPS and CHAPS were purchased from Sigma-Aldrich (St. Louis, Mo.).
# (§1) The kinase reaction was conducted in polystyrene 384-well Greiner Bio-one white plate from Thermo Fisher Scientific in a final volume of 25 μL. Inhibitors were first diluted serially in DMSO and added to the plate wells before the addition of other reaction components. The final concentration of DMSO in the assay was 2%. The PI3Kγ assay was carried out at room temperature in 20 mM MOPS, pH 6.7, 10 mM MgCl2, 5 mM DTT and CHAPS 0.03%. Reactions were initiated by the addition of ATP, the final reaction mixture consisted of 20 μM PIP2, 2 μM ATP, 0.5 μCi [γ-^33P] ATP, 13 nM PI3Kγ. Reactions were incubated for 120 min and terminated by the addition of 40 μL SPA beads suspended in quench buffer: 163 mM potassium phosphate pH 7.8, 20% glycerol, 25 mM EDTA. The final concentration of SPA beads is 1.0 mg/mL. After the plate sealing, plates were shaken overnight at room temperature and centrifuged at 1500 rpm for 10 min, the radioactivity of the product was determined by scintillation counting on Topcount (Perkin-Elmer). IC50 determination was performed by fitting the curve of percent of the solvent control activity versus the log of the inhibitor concentration using the GraphPad Prism 6.0 software.
# [2] = molecular target: PI3Kδ (p110δ/p85α) Recombinant Human Protein (Homo sapiens (Human), UniProt O00329); assay: PI3Kδ scintillation proximity assay; format: biochemical; settings: read-out: P13Kδ IC50
# PI3Kδ (p110δ/p85α) Recombinant Human Protein, sequence (O00329 whole entry): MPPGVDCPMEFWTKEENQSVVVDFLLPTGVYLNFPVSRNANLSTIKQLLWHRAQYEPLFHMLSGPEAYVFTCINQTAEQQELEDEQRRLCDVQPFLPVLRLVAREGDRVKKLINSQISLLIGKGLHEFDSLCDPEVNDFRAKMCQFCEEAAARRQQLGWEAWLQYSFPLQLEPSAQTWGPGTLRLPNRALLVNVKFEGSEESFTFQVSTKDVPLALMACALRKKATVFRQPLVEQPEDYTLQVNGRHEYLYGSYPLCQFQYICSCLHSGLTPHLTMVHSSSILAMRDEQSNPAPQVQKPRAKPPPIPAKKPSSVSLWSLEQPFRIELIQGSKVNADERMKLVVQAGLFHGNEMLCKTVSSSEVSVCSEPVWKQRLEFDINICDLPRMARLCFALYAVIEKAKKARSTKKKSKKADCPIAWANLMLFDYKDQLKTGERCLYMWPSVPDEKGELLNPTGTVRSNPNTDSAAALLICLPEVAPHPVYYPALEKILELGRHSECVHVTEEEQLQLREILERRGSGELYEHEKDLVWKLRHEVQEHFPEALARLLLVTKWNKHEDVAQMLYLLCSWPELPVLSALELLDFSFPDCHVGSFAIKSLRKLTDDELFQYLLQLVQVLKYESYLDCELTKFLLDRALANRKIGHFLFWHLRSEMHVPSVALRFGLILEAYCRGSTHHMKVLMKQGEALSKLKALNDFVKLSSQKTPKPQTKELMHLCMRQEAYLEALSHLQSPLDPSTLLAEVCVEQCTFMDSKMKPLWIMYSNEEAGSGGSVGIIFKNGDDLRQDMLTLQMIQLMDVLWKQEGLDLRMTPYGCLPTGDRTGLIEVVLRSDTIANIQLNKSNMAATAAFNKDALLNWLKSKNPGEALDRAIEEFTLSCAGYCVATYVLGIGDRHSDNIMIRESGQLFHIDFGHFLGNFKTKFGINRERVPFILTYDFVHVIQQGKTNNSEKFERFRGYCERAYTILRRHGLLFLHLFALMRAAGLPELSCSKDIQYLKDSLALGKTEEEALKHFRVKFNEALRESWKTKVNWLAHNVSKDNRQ
# PI3Kδ (p110δ/p85α) Recombinant Human Protein, sequence (P27986 whole entry partner): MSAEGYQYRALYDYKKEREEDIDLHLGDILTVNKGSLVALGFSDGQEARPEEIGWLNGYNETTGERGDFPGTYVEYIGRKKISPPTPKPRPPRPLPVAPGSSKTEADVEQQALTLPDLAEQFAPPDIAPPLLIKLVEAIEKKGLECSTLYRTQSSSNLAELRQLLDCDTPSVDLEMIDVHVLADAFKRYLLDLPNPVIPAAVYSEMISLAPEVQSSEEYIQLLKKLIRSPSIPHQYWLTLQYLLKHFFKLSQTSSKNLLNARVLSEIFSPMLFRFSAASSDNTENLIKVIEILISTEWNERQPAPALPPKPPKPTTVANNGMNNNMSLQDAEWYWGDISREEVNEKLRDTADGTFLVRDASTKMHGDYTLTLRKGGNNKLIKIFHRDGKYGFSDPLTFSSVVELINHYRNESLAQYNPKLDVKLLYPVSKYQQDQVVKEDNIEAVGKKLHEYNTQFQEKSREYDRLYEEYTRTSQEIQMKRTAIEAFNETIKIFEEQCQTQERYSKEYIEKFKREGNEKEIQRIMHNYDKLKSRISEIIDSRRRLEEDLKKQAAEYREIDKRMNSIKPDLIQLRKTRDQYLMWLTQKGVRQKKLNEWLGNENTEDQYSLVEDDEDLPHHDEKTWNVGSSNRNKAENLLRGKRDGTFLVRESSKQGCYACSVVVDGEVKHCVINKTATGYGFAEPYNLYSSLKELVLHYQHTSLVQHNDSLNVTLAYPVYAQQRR
# Protocol: PI3Kδ Scintillation Proximity Assay
# [γ-^33P]ATP (10 mCi/mL) and Wheat Germ Agglutinin (WGA) YSi SPA Scintillation Beads was purchased from Perkin-Elmer (Waltham, Mass.). […] PI3Kδ (p110δ/p85α) Recombinant Human Protein was purchased from Eurofins (St Charles, Mo.). ATP, MgCl2, DTT, EDTA, MOPS and CHAPS were purchased from SigmaAldrich (St. Louis, Mo.).
# as §1, with “PI3Kδ” for “PI3Kγ”, “ATP, 13 nM PI3Kγ. Reactions were incubated for 120 min and terminated by the addition of 40 μL SPA beads suspended in quench buffer: 163 mM potassium phosphate pH 7.8, 20% glycerol, 25 mM EDTA.” left out, “(PerkinElmer).” for “(Perkin-Elmer).”
# [3] = test system: Phosphorylated Ribosomal Protein S6 (RPS6) in THP-1 cells; assay: THP-1 RPS6 ELISA assay; format: cell-based; settings: Homo sapiens, THP-1, THP-1 cells, 10 nM MCP-1 stimulation, phospho-RPS6 ELISA; read-out: PI3Kγ_THP1_RPS6_ELISA IC50
# Protocol: Example A. THP-1 RPS6 ELISA Assay
# To measure the Phosphorylated Ribosomal Protein S6 (RPS6) in cell lysates, THP-1 cells (Human Acute Monocytic Leukemia) are purchased from ATCC (Manassas, Va.) and maintained in RPMI with 10% FBS (Gibco/Life Technologies, Carlsbad, Calif.). For the assay, THP-1 cells are serum starved overnight in RPMI, then plated in RPMI (2×10^5 cells/well in 90 μL) into 96-well flat-bottom tissue culture treated plates (Corning, Corning, N.Y.), in the presence or absence of a concentration range of test compounds. Covered plates are incubated for 2 hours at 37° C., 5% CO2 then treated with or without 10 nM MCP-1(MYBioSource, San Diego, Calif.) for 15 minutes at 37° C., 5% CO2. Plates are centrifuged at 1600 RPM and supernatants are removed. Cells are lysed in Lysis Buffer (Cell Signaling, Danvers, Mass.) with Protease Inhibitor (Calbiochem/EMD, Germany), PMSF (Sigma, St Louis Mo.), HALTS (Thermo Fisher, Rockford, Ill.) for 30 min on wet ice. Cell lysates are frozen at −80° C. before testing. The lysates are tested in the Human/Mouse/Rat Phospho-RPS6 ELISA (R&D Systems, Inc. Minn, Minn.). The plate is measured using a microplate reader (SpectraMax M5—Molecular Devices, LLC Sunnyvale, Calif.) set to 450 nm with a wavelength correction of 540. […]
# [4] = 20 μM PIP2, 2 μM ATP, 13 nM PI3Kγ
# [5] = 20 μM PIP2, 2 μM ATP, 3.4 nM PI3Kδ
# PI3Kγ (p110γ) Recombinant Human Protein, sequence (P48736 whole entry): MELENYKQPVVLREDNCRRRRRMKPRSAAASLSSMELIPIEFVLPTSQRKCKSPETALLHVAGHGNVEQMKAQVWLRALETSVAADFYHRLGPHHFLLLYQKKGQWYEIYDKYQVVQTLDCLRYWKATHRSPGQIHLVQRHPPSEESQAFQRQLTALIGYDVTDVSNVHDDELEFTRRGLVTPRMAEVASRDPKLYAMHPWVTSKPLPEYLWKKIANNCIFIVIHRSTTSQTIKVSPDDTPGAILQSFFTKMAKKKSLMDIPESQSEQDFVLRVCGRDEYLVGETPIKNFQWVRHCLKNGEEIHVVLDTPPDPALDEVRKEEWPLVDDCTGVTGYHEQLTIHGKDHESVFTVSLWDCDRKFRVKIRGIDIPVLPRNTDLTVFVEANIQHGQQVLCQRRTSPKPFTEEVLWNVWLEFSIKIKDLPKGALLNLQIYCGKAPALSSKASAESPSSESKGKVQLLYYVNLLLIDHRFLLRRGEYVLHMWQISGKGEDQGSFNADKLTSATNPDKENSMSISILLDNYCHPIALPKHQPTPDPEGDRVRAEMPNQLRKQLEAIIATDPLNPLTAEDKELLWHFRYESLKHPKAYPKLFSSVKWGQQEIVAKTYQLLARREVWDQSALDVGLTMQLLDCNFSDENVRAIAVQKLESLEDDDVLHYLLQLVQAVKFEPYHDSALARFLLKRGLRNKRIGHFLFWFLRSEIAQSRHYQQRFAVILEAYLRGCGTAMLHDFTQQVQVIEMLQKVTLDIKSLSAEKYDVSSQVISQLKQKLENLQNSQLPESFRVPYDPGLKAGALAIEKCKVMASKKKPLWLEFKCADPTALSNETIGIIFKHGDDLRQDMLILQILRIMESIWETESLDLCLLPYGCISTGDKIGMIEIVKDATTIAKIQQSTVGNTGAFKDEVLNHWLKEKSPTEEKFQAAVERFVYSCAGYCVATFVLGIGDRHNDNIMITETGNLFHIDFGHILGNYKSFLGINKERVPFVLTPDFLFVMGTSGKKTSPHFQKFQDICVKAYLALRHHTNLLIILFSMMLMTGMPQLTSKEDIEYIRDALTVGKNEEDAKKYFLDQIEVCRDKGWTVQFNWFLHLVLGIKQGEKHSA
"pIC50 [1, 4]","pIC50 [2, 5]",pIC50 [3],Structure (SMILES),pIC50 [1],pIC50 [2]
> 7.00,> 7.00,,"Cc1ccc(C(O)(C(N)=O)C(F)(F)F)cc1-c1cnc2c(N)nc(C(C)(C)O)cn12 (single isomer, unassigned) [Example 255, 2-(3-(8-Amino-6-(2-hydroxypropan-2-yl)imidazo[1,2-a]pyrazin-3-yl)-4-methylphenyl)-3,3,3-trifluoro-2-hydroxypropanamide trifluoroacetate salt (single enantiomer)]",,
> 7.00,6.30 to 7.00,,"Cc1ccc(C(O)(C(N)=O)C(F)(F)F)cc1-c1cnc2c(N)nc(C(=O)NC34CCC(O)(CC3)C4)cn12 (single isomer, unassigned) [Example 260, 8-Amino-3-(5-(3-amino-1,1,1-trifluoro-2-hydroxy-3-oxopropan-2-yl)-2-methylphenyl)-N-(4-hydroxybicyclo[2.2.1]heptan-1-yl)imidazo[1,2-a]pyrazine-6-carboxamide trifluoroacetate salt (single enantiomer)]",,

# The remaining lines, values behind:
Structure (SMILES),"pIC50 [1, 4]","pIC50 [2, 5]",pIC50 [3],pIC50 [1],pIC50 [2]
"Cc1ccc(C(O)(CO)C(F)(F)F)cc1-c1cnc2c(N)nc(-c3cnco3)cn12 (stereo not drawn) [Example 71, 2-(3-(8-Amino-6-(oxazol-5-yl)imidazo[1,2-a]pyrazin-3-yl)-4-methylphenyl)-3,3,3-trifluoropropane-1,2-diol trifluoroacetate salt]",,,,> 7.00,> 7.00
"Cc1ncc(-c2cn3c(-c4cc(C(O)(CO)C(F)(F)F)ccc4C)cnc3c(N)n2)o1 (single isomer, unassigned) [Example 68, 2-(3-(8-Amino-6-(2-methyloxazol-5-yl)imidazo[1,2-o]pyrazin-3-yl)-4-methylphenyl)-3,3,3-trifluoropropane-1,2-diol]",> 7.00,> 7.00,,,
"Cc1ncc(-c2cn3c(-c4cc(C(O)(CO)C(F)(F)F)ccc4C)cnc3c(N)n2)s1 (stereo not drawn) [Example 70, 2-(3-(8-Amino-6-(2-methylthiazol-5-yl)imidazo[1,2-a]pyrazin-3-yl)-4-methylphenyl)-3,3,3-trifluoropropane-1,2-diol trifluoroacetate salt]",,,,> 7.00,> 7.00
"Cc1ccc(C(O)(CO)C(F)(F)F)cc1-c1cnc2c(N)nc(-c3cnn(C)c3)cn12 (stereo not drawn) [Example 69, 2-(3-(8-Amino-6-(1-methyl-1H-pyrazol-4-yl)imidazo[1,2-a]pyrazin-3-yl)-4-methylphenyl)-3,3,3-trifluoropropane-1,2-diol trifluoroacetate salt]",,,,> 7.00,> 7.00
"Cc1ccc(C(C)(O)C(F)F)cc1-c1cnc2c(N)nc(-c3c[nH]nc3C)cn12 (stereo not drawn) [Example 47, 2-(3-(8-Amino-6-(3-methyl-1H-pyrazol-4-yl)imidazo[1,2-a]pyrazin-3-yl)-4-methylphenyl)-1,1-difluoropropan-2-ol, 1.2TFA]",> 7.00,> 7.00,> 7.00,,
